Test results: ChEMBL document CHEMBL1146613, “Novel inhibitors of procollagen C-terminal proteinase. Part 1: diamino Acid hydroxamates” (Bioorg Med Chem Lett, 2003)

Biological target: T1, Bone morphogenetic protein 1 (Homo sapiens, UniProt P13497)
T1 sequence (P13497 whole entry): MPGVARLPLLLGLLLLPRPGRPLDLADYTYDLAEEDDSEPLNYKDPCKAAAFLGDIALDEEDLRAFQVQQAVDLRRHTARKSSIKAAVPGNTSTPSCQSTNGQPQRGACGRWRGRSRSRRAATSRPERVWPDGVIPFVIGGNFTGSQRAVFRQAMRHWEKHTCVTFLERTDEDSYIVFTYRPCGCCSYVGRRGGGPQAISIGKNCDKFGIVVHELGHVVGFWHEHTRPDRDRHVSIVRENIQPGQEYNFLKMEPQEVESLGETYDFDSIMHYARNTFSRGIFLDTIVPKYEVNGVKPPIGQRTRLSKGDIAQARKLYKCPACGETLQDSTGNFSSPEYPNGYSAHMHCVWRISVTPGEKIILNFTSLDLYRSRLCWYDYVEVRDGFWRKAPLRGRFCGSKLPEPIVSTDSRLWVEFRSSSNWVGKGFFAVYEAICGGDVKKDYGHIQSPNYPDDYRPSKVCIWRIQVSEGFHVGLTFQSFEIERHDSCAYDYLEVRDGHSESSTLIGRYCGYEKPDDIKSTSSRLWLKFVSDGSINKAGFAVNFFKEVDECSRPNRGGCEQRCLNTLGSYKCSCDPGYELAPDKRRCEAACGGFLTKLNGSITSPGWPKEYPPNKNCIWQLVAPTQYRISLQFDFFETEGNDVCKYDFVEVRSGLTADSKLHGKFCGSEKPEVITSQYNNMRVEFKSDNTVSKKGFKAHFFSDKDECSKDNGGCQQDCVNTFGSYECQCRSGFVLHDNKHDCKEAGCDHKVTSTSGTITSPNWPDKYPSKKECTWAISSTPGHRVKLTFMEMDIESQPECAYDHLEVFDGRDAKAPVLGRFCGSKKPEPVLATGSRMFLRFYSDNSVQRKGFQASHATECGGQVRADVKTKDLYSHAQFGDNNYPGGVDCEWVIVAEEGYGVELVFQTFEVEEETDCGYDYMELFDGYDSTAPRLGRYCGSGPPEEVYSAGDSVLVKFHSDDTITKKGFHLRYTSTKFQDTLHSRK
Assay: In vitro inhibitory activity against procollagen C-terminal proteinase (PCP) in HT1080 cells using synthetic peptide as substrate
Type: cell-based, HT-1080

Compound	Ki
COc1ccc(S(=O)(=O)N(Cc2ccc3c(c2)OCO3)[C@H](CNS(=O)(=O)Cc2cccc([N+](=O)[O-])c2)C(=O)NO)cc1	0.028 µM
COc1ccc(S(=O)(=O)N(Cc2ccc3c(c2)OCO3)[C@H](CNC(=O)c2ccccc2-n2cccc2)C(=O)NO)cc1	0.008 µM
COc1ccc(S(=O)(=O)N(Cc2ccc3c(c2)OCO3)[C@H](CCNC(=O)CCc2nc3ccccc3[nH]2)C(=O)NO)cc1	0.41 µM
COc1ccc(S(=O)(=O)N(Cc2ccc3c(c2)OCO3)[C@H](CCNC(=O)c2ccccc2-n2cccc2)C(=O)NO)cc1	0.53 µM
COc1ccc(S(=O)(=O)N(Cc2ccc3c(c2)OCO3)[C@H](CCNC(=O)c2c(-c3ccccc3)noc2C)C(=O)NO)cc1	0.96 µM
COC(=O)c1ccc(C(=O)NCC[C@H](C(=O)NO)N(Cc2ccc3c(c2)OCO3)S(=O)(=O)c2ccc(OC)cc2)cc1	0.84 µM
COc1ccc(S(=O)(=O)N(Cc2ccc3c(c2)OCO3)[C@H](CNC(=O)c2ccccc2)C(=O)NO)cc1	0.014 µM
COc1ccc(S(=O)(=O)N(Cc2ccc3c(c2)OCO3)[C@H](CCNC(=O)c2cnoc2C)C(=O)NO)cc1	0.086 µM
COc1ccc(S(=O)(=O)N(Cc2ccc3c(c2)OCO3)[C@H](CCCNC(=O)c2ccccc2)C(=O)NO)cc1	0.1 µM
COc1ccc(S(=O)(=O)N(Cc2ccc3c(c2)OCO3)[C@H](CNC(=O)CNc2cnccn2)C(=O)NO)cc1	0.25 µM
COc1ccc(S(=O)(=O)N(Cc2ccc3c(c2)OCO3)[C@H](CNCc2ccc(NC(C)=O)cc2)C(=O)NO)cc1	1.01 µM
COc1ccc(S(=O)(=O)N(Cc2ccc3c(c2)OCO3)[C@H](CCNC(=O)CNc2cnccn2)C(=O)NO)cc1	2.5 µM
COC(=O)c1ccc(C(=O)NC[C@H](C(=O)NO)N(Cc2ccc3c(c2)OCO3)S(=O)(=O)c2ccc(OC)cc2)cc1	0.007 µM
COc1ccc(S(=O)(=O)N(Cc2ccc3c(c2)OCO3)[C@H](CNC(=O)c2cnoc2C)C(=O)NO)cc1	1.96 µM
CCOc1ccc(NC(=O)NC[C@H](C(=O)NO)N(Cc2ccc3c(c2)OCO3)S(=O)(=O)c2ccc(OC)cc2)cc1	0.022 µM
COc1ccc(S(=O)(=O)N(Cc2ccc3c(c2)OCO3)[C@H](CCNC(=O)c2ccccc2)C(=O)NO)cc1	0.47 µM
CCOC(=O)C1CCC(NCC(=O)NCC[C@H](C(=O)NO)N(Cc2ccc3c(c2)OCO3)S(=O)(=O)c2ccc(OC)cc2)CC1 (some centres undefined)	0.47 µM
COc1ccc(S(=O)(=O)N(Cc2ccc3c(c2)OCO3)[C@H](CCCCNC(=O)c2ccccc2)C(=O)NO)cc1	0.35 µM
COc1ccc(S(=O)(=O)N(Cc2ccc3c(c2)OCO3)[C@H](CNC(=O)NS(=O)(=O)c2ccc(Cl)cc2)C(=O)NO)cc1	0.018 µM
